Measured values reported in PubChem BioAssay (NCI).
Where “and” joins values, the source holds several entries; their conditions need not be identical. Equal values may be shown once.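 Compound exposure: 48 hours, 5 concentrations, 96-well plates. GI50 marks 50% less growth. TGI denotes the concentration required for complete inhibition of growth.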

Columns and labels:
Assay in all cases: NCI-60 cell line screen, 48 h
SW-620 colon = system: SW-620 colon
OVCAR-5 ovarian = system: OVCAR-5 ovarian
OVCAR-3 ovarian = system: OVCAR-3 ovarian
SF-268 CNS = system: SF-268 CNS
SK-OV-3 ovarian = system: SK-OV-3 ovarian
U251 CNS = system: U251 CNS
A498 renal = system: A498 renal
HL-60(TB) leukemia = system: HL-60(TB) leukemia
HOP-92 NSCLC = system: HOP-92 NSCLC
K-562 leukemia = system: K-562 leukemia
NCI/ADR-RES ovarian = system: NCI/ADR-RES ovarian
RPMI-8226 leukemia = system: RPMI-8226 leukemia
CAKI-1 renal = system: CAKI-1 renal
HCC-2998 colon = system: HCC-2998 colon
MOLT-4 leukemia = system: MOLT-4 leukemia
SF-295 CNS = system: SF-295 CNS
SR leukemia = system: SR leukemia
LOX IMVI melanoma = system: LOX IMVI melanoma
HT29 colon = system: HT29 colon
EKVX NSCLC = system: EKVX NSCLC
SK-MEL-28 melanoma = system: SK-MEL-28 melanoma
MCF7 breast = system: MCF7 breast
TK-10 renal = system: TK-10 renal
ACHN renal = system: ACHN renal
HCT-116 colon = system: HCT-116 colon
OVCAR-4 ovarian = system: OVCAR-4 ovarian
CCRF-CEM leukemia = system: CCRF-CEM leukemia
IGROV1 ovarian = system: IGROV1 ovarian
HOP-62 NSCLC = system: HOP-62 NSCLC
RXF 393 renal = system: RXF 393 renal
NCI-H460 lung = system: NCI-H460 lung
A549 NSCLC = system: A549 NSCLC
MDA-MB-231 breast = system: MDA-MB-231 breast
SNB-19 CNS = system: SNB-19 CNS
SNB-75 CNS = system: SNB-75 CNS
HS 578T breast = system: HS 578T breast
KM12 colon = system: KM12 colon
HCT-15 colon = system: HCT-15 colon
OVCAR-8 ovarian = system: OVCAR-8 ovarian
SN12C renal = system: SN12C renal
PC-3 prostate = system: PC-3 prostate
T-47D breast = system: T-47D breast
MALME-3M melanoma = system: MALME-3M melanoma
NCI-H522 lung = system: NCI-H522 lung
UO-31 renal = system: UO-31 renal
786-0 renal = system: 786-0 renal
DU-145 prostate = system: DU-145 prostate
MDA-MB-435 = system: MDA-MB-435
SF-539 CNS = system: SF-539 CNS
NCI-H23 lung = system: NCI-H23 lung
NCI-H226 lung = system: NCI-H226 lung
COLO 205 colon = system: COLO 205 colon
SK-MEL-5 melanoma = system: SK-MEL-5 melanoma
MDA-N = system: MDA-N
SK-MEL-2 melanoma = system: SK-MEL-2 melanoma
M14 melanoma = system: M14 melanoma
BT-549 breast = system: BT-549 breast
UACC-257 melanoma = system: UACC-257 melanoma
UACC-62 melanoma = system: UACC-62 melanoma

O=c1cc(N2CCOCC2)oc2c(-c3ccccc3)cccc12 gave a GI50 (SW-620 colon) of 15.5 µM, a TGI (SW-620 colon) greater than 100 µM and a GI50 (OVCAR-5 ovarian) of 5.17 µM. For the same compound, the TGI (OVCAR-5 ovarian) was > 100 µM and 63.8 µM, the GI50 (OVCAR-3 ovarian) was 4.48 µM and the TGI (OVCAR-3 ovarian) was 40.3 µM and 43 µM. The GI50 (SF-268 CNS) was 3.59 µM, the TGI (SF-268 CNS) was 53 µM and 14.2 µM and the GI50 (SK-OV-3 ovarian) was 6.92 µM. The TGI (SK-OV-3 ovarian) was 62.4 µM and 60.9 µM, the GI50 (U251 CNS) was 11.1 µM and the TGI (U251 CNS) was greater than 100 µM. The GI50 (A498 renal) was 1530 nM, the TGI (A498 renal) was 7.54 µM and 13.9 µM and the GI50 (HL-60(TB) leukemia) was 3.38 µM. For the same compound, the TGI (HL-60(TB) leukemia) was 38.2 µM and > 100 µM, the GI50 (HOP-92 NSCLC) was 3.74 µM and the TGI (HOP-92 NSCLC) was > 100 µM and 78.5 µM. For the same compound, the TGI (K-562 leukemia) was > 100 µM and 79.7 µM, the GI50 (NCI/ADR-RES ovarian) was 6.35 µM and the TGI (NCI/ADR-RES ovarian) was 85.2 µM and 24.3 µM. The GI50 (RPMI-8226 leukemia) was 5.1 µM, the TGI (RPMI-8226 leukemia) was > 100 µM and 18.3 µM and the TGI (CAKI-1 renal) was 28.9 µM and 9.16 µM. For the same compound, the GI50 (HCC-2998 colon) was 5.61 µM, the TGI (HCC-2998 colon) was 46.9 µM and the GI50 (MOLT-4 leukemia) was 5.46 µM. The TGI (MOLT-4 leukemia) was > 100 µM and 92.8 µM, the GI50 (SF-295 CNS) was 2610 nM and the TGI (SF-295 CNS) was 27.8 µM and 44.7 µM. The TGI (SR leukemia) was > 60 µM and 46.6 µM, the GI50 (LOX IMVI melanoma) was 4.34 µM and the TGI (LOX IMVI melanoma) was > 68.3 µM and 18.4 µM. The GI50 (HT29 colon) was 5.27 µM, the TGI (HT29 colon) was 70.6 µM and 43.8 µM and the GI50 (EKVX NSCLC) was 5.22 µM. For the same compound, the TGI (EKVX NSCLC) was > 71 µM and 23.2 µM, the GI50 (SK-MEL-28 melanoma) was 6.57 µM and the TGI (SK-MEL-28 melanoma) was greater than 100 µM. The TGI (MCF7 breast) was > 57 µM and 16.1 µM, the GI50 (TK-10 renal) was 4.39 µM and the TGI (TK-10 renal) was 40.3 µM and > 100 µM. For the same compound, the GI50 (ACHN renal) was 4.25 µM, the TGI (ACHN renal) was greater than 100 µM and the GI50 (HCT-116 colon) was 9.87 µM. For the same compound, the TGI (HCT-116 colon) was > 100 µM and 46.1 µM, the GI50 (OVCAR-4 ovarian) was 3.5 µM and the TGI (OVCAR-4 ovarian) was > 61.9 µM and 75.5 µM. The GI50 (CCRF-CEM leukemia) was 8.59 µM, the TGI (CCRF-CEM leukemia) was greater than 100 µM and the GI50 (IGROV1 ovarian) was 3.65 µM. The TGI (IGROV1 ovarian) was > 34.4 µM and 12.3 µM, the GI50 (HOP-62 NSCLC) was 5.41 µM and the TGI (HOP-62 NSCLC) was greater than 100 µM. The TGI (RXF 393 renal) was 13.4 µM and 13.6 µM, the GI50 (NCI-H460 lung) was 6.13 µM and the TGI (NCI-H460 lung) was greater than 100 µM. For the same compound, the GI50 (A549 NSCLC) was 6 µM, the TGI (A549 NSCLC) was > 72.8 µM and 36.7 µM and the GI50 (MDA-MB-231 breast) was 5.85 µM. For the same compound, the TGI (MDA-MB-231 breast) was 97.3 µM and 19.6 µM, the TGI (SNB-19 CNS) was > 96.2 µM and 78.6 µM and the GI50 (SNB-75 CNS) was 1910 nM. For the same compound, the TGI (SNB-75 CNS) was 14.6 µM and 5.97 µM, the GI50 (HS 578T breast) was 3.16 µM and the TGI (HS 578T breast) was > 30.6 µM and 11.4 µM. The GI50 (KM12 colon) was 10.6 µM, the TGI (KM12 colon) was 44.9 µM and 28.8 µM and the GI50 (HCT-15 colon) was 4.98 µM. The TGI (HCT-15 colon) was > 100 µM and 48.7 µM, the TGI (OVCAR-8 ovarian) was > 80.1 µM and 29.1 µM and the GI50 (SN12C renal) was 2930 nM. The TGI (SN12C renal) was greater than 100 µM, the GI50 (PC-3 prostate) was 2960 nM and the TGI (PC-3 prostate) was greater than 100 µM. For the same compound, the GI50 (T-47D breast) was 3.03 µM, the TGI (T-47D breast) was 48.7 µM and 8.31 µM and the GI50 (MALME-3M melanoma) was 4.46 µM. The TGI (MALME-3M melanoma) was > 41.4 µM and 5.6 µM, the GI50 (NCI-H522 lung) was 4.96 µM and the TGI (NCI-H522 lung) was 23.2 µM and 19.3 µM. The GI50 (UO-31 renal) was 1390 nM, the GI50 (786-0 renal) was 3.13 µM and the TGI (786-0 renal) was > 37.9 µM and 46.7 µM. The GI50 (DU-145 prostate) was 6.73 µM, the TGI (DU-145 prostate) was greater than 100 µM and the GI50 (MDA-MB-435) was 4.23 µM. For the same compound, the TGI (MDA-MB-435) was 31.1 µM and 37.2 µM, the GI50 (SF-539 CNS) was 5.57 µM and the TGI (SF-539 CNS) was 31.6 µM and 29.8 µM. For the same compound, the GI50 (NCI-H23 lung) was 9.08 µM, the TGI (NCI-H23 lung) was greater than 100 µM and the TGI (NCI-H226 lung) was 50 µM and 50.6 µM. For the same compound, the TGI (COLO 205 colon) was 36.7 µM and 30.1 µM, the GI50 (SK-MEL-5 melanoma) was 9.35 µM and the TGI (SK-MEL-5 melanoma) was 22 µM. The TGI (MDA-N) was 50.3 µM, the GI50 (SK-MEL-2 melanoma) was 12.1 µM and the TGI (SK-MEL-2 melanoma) was 38 µM and 36.9 µM. For the same compound, the GI50 (M14 melanoma) was 5.38 µM, the TGI (M14 melanoma) was > 38.5 µM and 56 µM and the GI50 (BT-549 breast) was 1790 nM. For the same compound, the TGI (BT-549 breast) was > 19.8 µM and 76.2 µM, the GI50 (UACC-257 melanoma) was 9.06 µM and the TGI (UACC-257 melanoma) was 69.2 µM and 60.8 µM. The GI50 (UACC-62 melanoma) was 3.19 µM and the TGI (UACC-62 melanoma) was 18.8 µM and 21.9 µM.
